Data taken from a melting point compilation (Tetko et al.).

SMILES	melting point [°C]
CC1=C(C)C(=O)c2ccccc2C1=O	127
CC(C)(C)C(O)C(Cc1ccc(Cl)cc1)n1cncn1 (stereo not given)	166
OCc1ccc(Cl)nc1	48
O=C1NC(=O)C(=Cc2cccc(C=C3C(=O)NC(=O)NC3=O)c2)C(=O)N1	340
CCOc1ccc(F)cc1	-8.5
COc1ccc(C=NN=Cc2ccc(OC)cc2)cc1	167 to 168
O=NN(c1ccccc1)c1ccccc1	66.5
Cc1ncc(C#N)c(N)n1	249 to 252
Cc1nn(C)c(N2CCOCC2)c1N	156 to 157
CN(C)c1cccc2cccc(N(C)C)c12	49
O=[N+]([O-])c1ccc2c(c1)-c1ccc([N+](=O)[O-])c3cccc-2c13	223
Nc1ccc(N)cc1	146
NNc1ncnc2c1cnn2-c1ccccc1	190 to 191
COc1ccc(C=C(C(=O)O)C(=Cc2ccc(OC)c(OC)c2)C(=O)O)cc1OC	224
CCOC(=O)c1c(Nc2ccc(OC)cc2)sc2c(-c3ccccc3)c3c(N)n[nH]c3nc12	248 to 252
COc1ccc(C)c(C(=O)O)c1	147
ClCc1ccc(OCc2ccccc2)c(OCc2ccccc2)c1	41 to 44
O=C(O)C=CCCCCCCCCC(=O)O	166
CSc1nc(-c2ccc(C)cc2)nc(N)c1C#N	213 to 214
O=C(OCC1(COC(=O)c2cccnc2)CCCC(COC(=O)c2cccnc2)(COC(=O)c2cccnc2)C1O)c1cccnc1	178
O=C1CCN(C(=O)c2ccccc2)CC1	56 to 59
CNC(=O)Oc1ccc2c(c1)C1(C)CCN(C)C1N2C (stereo not given)	106
CC(C)Oc1cc(N)c(Cl)cc1Cl	42
Cc1onc(-c2c(Cl)cccc2Cl)c1C(=O)Cl	92 to 95
COC(=O)c1sccc1Cl	39 to 40

SMILES	melting point [°C]
N#CCCCC#N	-29
OC1(Cc2ccccc2)CCNCC1	80 to 85
CC1(C)CC(=O)C2=C(C1)Nc1ccc3ccccc3c1C2c1ccc(F)cc1 (stereo not given)	204
N#CCc1ccc(Cc2ccccc2)cc1	35.5
CC(C)C(C)C=CC(C)C1CCC2C3=CC=C4CC(O)CCC4(C)C3CCC21C (stereo not given)	170
O=C=Nc1c(Br)cc(F)cc1Br	44
C=C(C)CN(CC)c1c([N+](=O)[O-])cc(C(F)(F)F)cc1[N+](=O)[O-]	55.5
Nc1ccc(Cl)cc1C(=O)c1cccc(O)c1	190 to 192
Cc1cc(C(=O)O)c(C)n1Cc1cccs1	184 to 187
COc1cc2nc(Cl)nc(Cl)c2cc1OC	177
Cc1cc(Br)cnc1N	92 to 94
CSCCC(N)C(=O)O (stereo not given)	281
NC1=NCC(c2ccccc2)O1 (stereo not given)	136
CCOC(=O)C(OC(=O)c1ccccc1)c1cc(C(OC(=O)c2ccccc2)C(=O)OCC)c([N+](=O)[O-])cc1[N+](=O)[O-] (stereo not given)	133
OCCC12CC3CC(CC(C3)C1)C2	74
OCCCc1ccncc1	37
O=S(=O)(Cl)c1ccsc1	44 to 45
O=[N+]([O-])C=Cc1c(Cl)cccc1Cl	62 to 66
Oc1c(F)c(F)c(F)c2c(F)c(F)c(F)c(F)c12	103 to 107
CCOC(=O)c1cc(C(=O)O)c([N+](=O)[O-])cc1[N+](=O)[O-]	154
CC12CCC3C(CCC4CC(O)CCC43C)C1CCC2=O (stereo not given)	185
Cc1nc(-c2cccc(S(=O)(=O)Cl)c2)cs1	116 to 118
C/C=C/C(=O)N1C(=O)OC[C@@H]1Cc1ccccc1	84 to 85
Cc1cc(C)c([N+](=O)[O-])c(C)c1[N+](=O)[O-]	85.3
NC(=S)CCn1cccc(C(F)(F)F)c1=O	154 to 155

SMILES	melting point [°C]
O=C(O)c1cccc(-c2cc[nH]n2)c1	204
O=Cc1cc(O)ccc1[N+](=O)[O-]	167
Nc1ccc(N)c2ccccc12	120
FC(F)(F)c1cc(Cl)c2nc(S)[nH]c2c1	310 to 312
CC(=O)OCC1OC(n2cc(I)c(=O)[nH]c2=O)CC1OC(C)=O (stereo not given)	161 to 163
O=C(O)C(F)(F)C(F)(F)C(F)(F)C(F)(F)C(F)(F)C(F)(F)C(F)(F)C(F)F	67
CC(=O)CC(=O)Nc1ccc(Cl)cc1	132
CC(C)(C)C(=O)CCl	-1
O=C1CCc2ccccc2O1	25
COC(=O)c1coc(CCl)n1	74 to 76
C=CCC1=C(OC(C)=O)C2=CC=C3C(C)=C(C)C(=O)CC3(C)C2=C(O)C1=O (stereo not given)	93
Cc1nn(Cc2ccc(C(=O)O)o2)c(C)c1Br	207 to 208
CCCCCCCCCCCC(=O)N1CC(=O)NC(=O)C1	114 to 116
Cc1cc(C)c(C2(C)CC(C(=O)c3cc4cc(Br)ccc4o3)C2)c(C)c1 (stereo not given)	208 to 209
ClC(Cl)(Cl)C(Cl)(Cl)Cl	187
CCC(C)(O)C(C)(C)C (stereo not given)	-6
NC(=O)C(CO)NC(=O)OCC1c2ccccc2-c2ccccc21 (stereo not given)	155
c1ccc(-c2cc3ccccc3cn2)cc1	103
N#Cc1ccc2nonc2c1	86 to 88
Cc1ccc([N+](=O)[O-])cc1F	35
O=c1[nH]cc(Cl)cc1Cl	180
NNC(=O)C1CC1C(=O)NN (stereo not given)	187 to 191
O=C(O)Cc1cccc(Cl)c1Cl	134
Cc1ccc(S(=O)(=O)OCCOCc2ccccc2)cc1	48 to 51
O=c1[nH]c2ccccc2[nH]c1=O	300

SMILES	melting point [°C]
Brc1ccc2c(c1)Oc1cc(Br)ccc1O2	145
O=C1C=C(NCc2ccc([N+](=O)[O-])cc2)C(=O)c2ccccc21	235
Cc1ccncc1/C=N/N(C)C	50
CC(=O)c1sc(-c2cccs2)nc1C	121 to 122
CC(C)CCC[C@@H](C)[C@H]1CC[C@H]2[C@@H]3CC=C4C[C@@H](OCOc5ccc(Cl)cc5)CC[C@]4(C)[C@H]3CC[C@]12C	144 to 145
O=C(O)c1ccc(Oc2ccccn2)cc1	174 to 175
Cc1nn(C)c(C)c1C=O	81.5
O=C(NC(=O)c1ccccc1Cl)Nc1ccc(OC(F)(F)F)cc1	195
C=CCNC(=S)Nc1sc2c(c1C(=O)OCC)CCCC2	151 to 152
C=Cc1ccc2c(c1)OCCOCCOCCOCCOCCO2	57 to 60
CC1(C)OC(=O)C1(C)C	132
CCc1ccc(NC(N)=S)cc1	138
CSc1ccc(S)cc1	13
Cc1ccccc1NC(=S)Nc1ccccc1C	158
Cc1ccc(-c2c(C#N)c(=O)n3c(sc4ccccc43)c2C(N)=O)cc1	199
CC(=O)Nc1ccc(C(C)=O)c(C)c1	139
Cn1c([N+](=O)[O-])cnc1C=Cc1ccnc(N)n1	234
N#C/C(=N/Nc1ccccc1Cl)c1nc(-c2ccccc2)cs1	160
O=C1CCC/C1=C1\C(=O)Nc2ccccc21	267
COS(=O)(=O)c1cc([N+](=O)[O-])ccc1C=Cc1ccc([N+](=O)[O-])cc1S(=O)(=O)OC	228
OCC(F)(F)C(F)(F)C(F)(F)C(F)(F)C(F)(F)C(F)(F)CO	80 to 83
CCc1nc(N)nc(Cl)c1C	138 to 140
CCOC(=O)c1c(-c2ccc(OC)cc2)csc1N	75
CS(=O)(=O)CN1C(=O)NC(c2ccccc2)(c2ccccc2)C1=O	196 to 197
Cn1cc(C(=O)Nc2ccc(F)cc2-c2ccc(Cl)c(Cl)c2)c(C(F)F)n1	147

SMILES	melting point [°C]
Cc1cccc(Nc2ccncc2S(=O)(=O)NC(=O)NC(C)C)c1	163
COC(=O)C1(S(=O)(=O)c2ccccc2)CCCCC1	114
SC1=NN=C(S)NN1	191 to 193
CC(C)(C)c1ccc(-c2cc(N)c(C(N)=O)s2)cc1	244 to 248
CCCCCCCCCCCCCCCCOCCOCCOCCOCCOCCOCCOCCOCCOCCOCCOCCOCCOCCOCCOCCOCCOCCOCCOCCOCCO	35.4 to 39.6
O=C1CCCC1C1CCCC1 (stereo not given)	-13
Clc1cc(Cl)nc(Cc2ccccc2)n1	56 to 57
CCOC(=O)/C(C#N)=C/c1ccc(-c2ccc(Cl)cc2)o1	140
COC(=O)c1sc(SC)c(S(=O)(=O)C(C)C)c1I	193 to 195
C#CCC	-126
CC1(C)C2CCC1(C)C(NC(=O)c1ccccc1)C2NC(=O)c1ccccc1 (stereo not given)	148
OCc1cc(C(F)(F)F)ccc1N1CCOCC1	83 to 84
CC(C)(C)c1cc(CC#N)cc(C(C)(C)C)c1O	111
CCOC(=O)c1nnn2c3ccccc3c(=O)n(C)c12	149 to 150
COc1cc(-c2nnc3n2N=C(C(C)C)CS3)cc(OC)c1OC	157
O=[N+]([O-])c1cccc(NN=Cc2ccccc2)c1	196
CCCC(NC(=O)C(C)N)C(=O)O (mixture of isomers)	240 to 242
CCCOCCO	-70
CCOC(=O)NP(=O)(N1CC1)N1CC1	89
Cc1ncc(CSSCc2cnc(C)c(O)c2CO)c(CO)c1O	219
COc1ccc(CC(=O)O)cc1	87
COC(=O)c1sccc1S(=O)(=O)Cl	62 to 66
CCCCCCC(CCCCCC)CCCCCC	-28.3
CCN1C(=O)NC(c2ccccc2)C1=O (stereo not given)	94
CC1(C)C=C(C(N)=O)C(C)(C)N1O	198 to 200
